Several values for one entry are separate records, joined by “and”; a condition that tells them apart may be missing. Equal entries are not always repeated. Toxic doses and inconclusive results are not listed. Rule for the calls: active = survival T/C of 150% or more; inactive = T/C below 125% in these data.
Test system: P388 leukemia ip, CD2F1 mice, survival T/C
Test: NCI In Vivo Anticancer Drug Screen. Data for tumor model P388 Leukemia (intraperitoneal) in CD2F1 (CDF1) mice
Conditions: endpoint: median survival time, higher = longer survival
In short: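 Mice carrying the transplanted tumor received test compound or vehicle. Survival was recorded in each group, and the value is the treated-group measurement divided by that of the vehicle-treated control group.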

[1] = dose: 12.5 mg/kg/injection, schedule: Q01DX009 (ip), vehicle: other
[2] = dose: 25.0 mg/kg/injection, schedule: Q01DX009 (ip), vehicle: other
[3] = dose: 100.0 mg/kg/injection, schedule: Q01DX001 (ip), vehicle: saline
[4] = dose: 200.0 mg/kg/injection, schedule: Q01DX001 (ip), vehicle: saline
[5] = dose: 400.0 mg/kg/injection, schedule: Q01DX001 (ip), vehicle: saline
[6] = dose: 60.0 mg/kg/injection, schedule: Q01DX005 (ip), vehicle: saline with Tween-80
[7] = dose: 120.0 mg/kg/injection, schedule: Q01DX005 (ip), vehicle: saline with Tween-80
[8] = dose: 240.0 mg/kg/injection, schedule: Q01DX005 (ip), vehicle: saline with Tween-80
[9] = dose: 50.0 mg/kg/injection, schedule: Q01DX005 (ip), vehicle: Klucel (hydroxypropylcellulose) (HPC)
[10] = dose: 100.0 mg/kg/injection, schedule: Q01DX005 (ip), vehicle: Klucel (hydroxypropylcellulose) (HPC)
[11] = dose: 200.0 mg/kg/injection, schedule: Q01DX005 (ip), vehicle: Klucel (hydroxypropylcellulose) (HPC)
[12] = dose: 100.0 mg/kg/injection, schedule: Q04DX003 (ip), vehicle: Klucel (hydroxypropylcellulose) (HPC)
[13] = dose: 200.0 mg/kg/injection, schedule: Q04DX003 (ip), vehicle: Klucel (hydroxypropylcellulose) (HPC)

Measured: T/C

COc1ccc(C/C=N/O)c(OC)c1
inactive: [1] 91 % of control | [2] 89 % of control | dose: 100.0 mg/kg/injection, schedule: Q01DX009 (ip), vehicle: other 93 % of control

CC(/C=N\NC(=S)SCc1ccccc1)=N/NC(N)=S
inactive: [3] 106 % of control | [4] 106 % of control | [5] 103 % of control

COc1ccc(/C=N/N2CN(C(C)C(=O)O)B(NC34CC5CC(CC(C5)C3)C4)N=C2N)cc1OC (stereo not drawn)
inactive: [6] 104 % of control | [7] 99 % of control | [8] 93 % of control

Cc1cc(=O)n2c([nH]c3ccccc32)c1N=Nc1ccccc1
inactive: [9] 93 % of control | [10] 92 % of control | [11] 100 % of control

Cn1c(=O)[nH]c(=O)c2nc(-c3ccccc3)cnc21
inactive: dose: 100.0 mg/kg/injection, schedule: Q04DX002 (ip), vehicle: Klucel (hydroxypropylcellulose) (HPC) 105 % of control | dose: 400.0 mg/kg/injection, schedule: Q04DX002 (ip), vehicle: Klucel (hydroxypropylcellulose) (HPC) 86 % of control

OC1C2CCC(C2)C1CN1CCOCC1 (stereo not drawn)
inactive: dose: 25.0 mg/kg/injection, schedule: Q01DX005 (ip), vehicle: saline with Tween-80 99 % of control | dose: 50.0 mg/kg/injection, schedule: Q01DX005 (ip), vehicle: saline with Tween-80 99 % of control | dose: 100.0 mg/kg/injection, schedule: Q01DX005 (ip), vehicle: saline with Tween-80 99 % of control | dose: 200.0 mg/kg/injection, schedule: Q01DX005 (ip), vehicle: saline with Tween-80 96 % of control

[CH3][Sn]([CH3])([CH3])[N]=C=[N][Sn]([CH3])([CH3])[CH3]
inactive: dose: 0.4 mg/kg/injection, schedule: Q01DX005 (ip), vehicle: saline 100 % of control | dose: 0.8 mg/kg/injection, schedule: Q01DX005 (ip), vehicle: saline 101 % of control

CC(=O)Nc1ccccc1CO
inactive: dose: 25.0 mg/kg/injection, schedule: Q01DX005 (ip), vehicle: Klucel (hydroxypropylcellulose) (HPC) 97 % of control | [9] 100 % of control | [10] 100 % of control | [11] 100 % of control

COc1cc2c(c(OC)c1OC)-c1cccc(=O)cc1C(NC(C)=O)CC2 (stereo not drawn)
active: dose: 5.0 mg/kg/injection, schedule: Q01DX009 (ip), vehicle: Klucel (hydroxypropylcellulose) (HPC) 150 % of control and 155 % of control | dose: 10.0 mg/kg/injection, schedule: Q01DX009 (ip), vehicle: Klucel (hydroxypropylcellulose) (HPC) 176 % of control and 179 % of control | dose: 20.0 mg/kg/injection, schedule: Q01DX009 (ip), vehicle: Klucel (hydroxypropylcellulose) (HPC) 233 % of control and 250 % of control
inactive: dose: 1.25 mg/kg/injection, schedule: Q01DX009 (ip), vehicle: Klucel (hydroxypropylcellulose) (HPC) 121 % of control | dose: 2.5 mg/kg/injection, schedule: Q01DX005 (ip), vehicle: saline 100 % of control | dose: 5.0 mg/kg/injection, schedule: Q01DX005 (ip), vehicle: saline 101 % of control | dose: 10.0 mg/kg/injection, schedule: Q01DX005 (ip), vehicle: saline 104 % of control | dose: 20.0 mg/kg/injection, schedule: Q01DX005 (ip), vehicle: saline 99 % of control | dose: 40.0 mg/kg/injection, schedule: Q01DX005 (ip), vehicle: saline 104 % of control

COc1cccc2c1C(=O)c1c(O)c3c(c(O)c1C2=O)CC(O)(c1cscn1)CC3O (stereo not drawn)
inactive: dose: 1.56 mg/kg/injection, schedule: Q01DX009 (ip), vehicle: other 104 % of control | dose: 3.13 mg/kg/injection, schedule: Q01DX009 (ip), vehicle: other 107 % of control | dose: 6.25 mg/kg/injection, schedule: Q01DX009 (ip), vehicle: other 101 % of control | [1] 105 % of control | [2] 104 % of control | dose: 50.0 mg/kg/injection, schedule: Q01DX009 (ip), vehicle: other 113 % of control

C=C1CC2(CC(C)CCC2=C(C)C)OC1=O (stereo not drawn)
inactive: [3] 101 % of control | [4] 100 % of control | [5] 101 % of control

CCOC(=O)C(C(C)N1CCOCC1)N1CCOCC1 (stereo not drawn)
inactive: [9] 110 % of control | [10] 100 % of control | [11] 101 % of control

CC(C)C1C(=O)N(c2ccccc2)N(C)C1C (stereo not drawn)
inactive: [12] 100 % of control | [13] 104 % of control

CC(CCc1ccc(O)cc1)NCCc1ccc(O)c(O)c1 (stereo not drawn)
inactive: dose: 50.0 mg/kg/injection, schedule: Q01DX009 (ip), vehicle: suspension in saline 100 % of control | dose: 100.0 mg/kg/injection, schedule: Q01DX009 (ip), vehicle: suspension in saline 104 % of control | dose: 200.0 mg/kg/injection, schedule: Q01DX009 (ip), vehicle: suspension in saline 115 % of control

COC1=CC(=[O+]C)/C(=C/c2c(OC)cc(OC)cc2OC)C(OC)=C1
inactive: dose: 50.0 mg/kg/injection, schedule: Q01DX009 (ip), vehicle: saline with Tween-80 94 % of control | dose: 100.0 mg/kg/injection, schedule: Q01DX009 (ip), vehicle: saline with Tween-80 86 % of control | dose: 200.0 mg/kg/injection, schedule: Q01DX009 (ip), vehicle: saline with Tween-80 86 % of control

COc1cc2c(cc1O)CCCC=C2
inactive: dose: 100.0 mg/kg/injection, schedule: Q01DX009 (ip), vehicle: gum acacia 113 % of control | dose: 200.0 mg/kg/injection, schedule: Q01DX009 (ip), vehicle: gum acacia 105 % of control | dose: 400.0 mg/kg/injection, schedule: Q01DX009 (ip), vehicle: gum acacia 106 % of control

C/C(=N\NC(=S)N1CCN(C2CCCCC2)CC1)c1ccccn1
inactive: dose: 1.56 mg/kg/injection, schedule: Q01DX005 (ip), vehicle: saline with Tween-80 103 % of control | dose: 3.13 mg/kg/injection, schedule: Q01DX005 (ip), vehicle: saline with Tween-80 106 % of control | dose: 6.25 mg/kg/injection, schedule: Q01DX005 (ip), vehicle: saline with Tween-80 101 % of control and 87 % of control

Cc1n[nH]c(=O)c2[nH]c3ccccc3c12
inactive: [6] 104 % of control | [7] 97 % of control | [8] 96 % of control

NC(=O)c1ccc(Cl)cc1C(N)=O
inactive: [9] 99 % of control | [10] 105 % of control | [11] 99 % of control

O=C(O)/C=C\S(=O)(=O)O
inactive: dose: 25.0 mg/kg/injection, schedule: Q04DX002 (ip), vehicle: saline 116 % of control | dose: 50.0 mg/kg/injection, schedule: Q04DX002 (ip), vehicle: saline 106 % of control | dose: 100.0 mg/kg/injection, schedule: Q04DX002 (ip), vehicle: saline 93 % of control

O=[N+]([O-])c1ccc(OC2OCC(O)C(O)C2O)cc1 (stereo not drawn)
inactive: dose: 60.0 mg/kg/injection, schedule: Q01DX005 (ip), vehicle: saline 97 % of control | dose: 120.0 mg/kg/injection, schedule: Q01DX005 (ip), vehicle: saline 88 % of control | dose: 240.0 mg/kg/injection, schedule: Q01DX005 (ip), vehicle: saline 89 % of control

Nn1nnc(-c2ccccc2)n1
inactive: dose: 50.0 mg/kg/injection, schedule: Q01DX009 (ip), vehicle: Klucel (hydroxypropylcellulose) (HPC) 96 % of control | dose: 100.0 mg/kg/injection, schedule: Q01DX009 (ip), vehicle: Klucel (hydroxypropylcellulose) (HPC) 96 % of control | dose: 200.0 mg/kg/injection, schedule: Q01DX009 (ip), vehicle: Klucel (hydroxypropylcellulose) (HPC) 97 % of control

C=C(NC(C)=O)C(=O)CCC(N)=O
inactive: dose: 5.0 mg/kg/injection, schedule: Q01DX009 (ip), vehicle: saline sonified 109 % of control | dose: 10.0 mg/kg/injection, schedule: Q01DX009 (ip), vehicle: saline sonified 109 % of control | dose: 20.0 mg/kg/injection, schedule: Q01DX009 (ip), vehicle: saline sonified 104 % of control

COc1ccc(C(=O)/C=C/c2ccc(OC)c(OC)c2OC)c(O)c1
inactive: [12] 99 % of control | [13] 99 % of control | dose: 400.0 mg/kg/injection, schedule: Q04DX003 (ip), vehicle: Klucel (hydroxypropylcellulose) (HPC) 90 % of control

CCCCCOC(=O)CN(CC(=O)OCCCCC)c1ccc(C=O)cc1
inactive: dose: 25.0 mg/kg/injection, schedule: Q04DX003 (ip), vehicle: other 95 % of control | dose: 50.0 mg/kg/injection, schedule: Q04DX003 (ip), vehicle: other 100 % of control | dose: 100.0 mg/kg/injection, schedule: Q04DX003 (ip), vehicle: other 100 % of control

Reference: PubChem BioAssay AID330 (DTP/NCI, 2004)
